ChEMBL document CHEMBL5108053 (J Med Chem, 2022)

Key:
[1] = Lipophilicity, logD of the compound in Octanol/potassium phosphate buffer at pH 7.4 after 1 hr by shake-flask based LC-MS/MS analysis; type: physicochemical; conditions: octanol/water, pH 7.4, 1 h
[2] = Stability in human hepatocytes assessed as intrinsic clearance at 2 uM measured per 10^6 cells incubated at 15 to 120 mins by LC-MS/MS analysis; type: ADME, cell-based, Hepatocyte; conditions: time 15-120 min
[3] = Oral bioavailability in C57BL/6 mouse at 1 mg/kg, iv or 10 mg/kg by HPLC analysis; type: ADME, organism-based; conditions: in vivo
[4] = Volume of distribution in C57BL/6 mouse at 1 mg/kg, iv or 10 mg/kg, po by HPLC analysis; type: ADME, organism-based; conditions: in vivo
[5] = Stability in mouse hepatocytes assessed as intrinsic clearance at 2 uM measured per 10^6 cells incubated at 15 to 120 mins by LC-MS/MS analysis; type: ADME, cell-based, Hepatocyte; conditions: time 15-120 min

Row | SMILES | logD [1] | CLH [2] [µL/min] | bioavailability [3] [%] | Vd [4] [L/kg] | CLH [5] [µL/min]
1 | C[C@H]1O[C@@H](S[C@@H]2O[C@H](CO)[C@H](O)[C@H](n3cc(-c4cccc(F)c4)nn3)[C@H]2O)[C@H](O)[C@@H](n2cc(-c3cccc(F)c3)nn2)[C@H]1O | 2.4 | – | – | – | –
2 | N#Cc1ccc(S[C@H]2O[C@H](CO)[C@H](O)[C@H](n3cc(-c4cc(F)c(F)c(F)c4)nn3)[C@H]2O)cc1Cl | 3.7 | 0.8 | 95 | 0.9 | 1.1
3 | CCCCSC[C@H]1O[C@@H](S[C@@H]2O[C@H](CO)[C@H](O)[C@H](n3cc(-c4cccc(F)c4)nn3)[C@H]2O)[C@H](O)[C@@H](n2cc(-c3cccc(F)c3)nn2)[C@H]1O | 3.4 | – | – | – | –
4 | OC[C@H]1O[C@@H](S[C@@H]2O[C@H](CO)[C@H](O)[C@H](n3cc(-c4cccc(F)c4)nn3)[C@H]2O)[C@H](O)[C@@H](n2cc(-c3cccc(F)c3)nn2)[C@H]1O [OLITIGALTIN] | 2.1 | – | – | – | –
5 | OC[C@H]1O[C@H](Sc2ccc(Cl)c(Cl)c2)[C@H](O)[C@@H](n2cc(-c3cc(F)c(F)c(F)c3)nn2)[C@H]1O | 4.6 | 0.7 | 75 | 0.4 | 0.8

More lines, now with the values ahead:

Row | logD [1] | CLH [2] [µL/min] | bioavailability [3] [%] | Vd [4] [L/kg] | CLH [5] [µL/min] | SMILES
6 | 2.28 | – | – | – | – | CC(=O)Nc1ccc(S[C@H]2O[C@H](CO)[C@H](O)[C@H](n3cc(-c4cc(F)c(F)c(F)c4)nn3)[C@H]2O)cc1
7 | 3 | 0.15 | 68 | 1.1 | – | OC[C@H]1O[C@H](Sc2cncc(Br)c2)[C@H](O)[C@@H](n2cc(-c3cc(F)c(F)c(F)c3)nn2)[C@H]1O [SELVIGALTIN]
